Source: patent publication US20080269162A1, “Novel Medicaments for Anti-Retroviral Treatments” (priority 2006, published 2008)
Several values for one entry are separate records, joined by “and”; a condition that tells them apart may be missing. Identical values can stand only once.

Tests used:
Assay type in all cases: cell-based, HIV
[1] = system: BRU virus (clade B); experiment: Number of syncitia in MT4 cell culture infected by BRU virus; parameters: key: the absence of syncitia is indicated by a minus (−) sign; the (+), +, ++, ++T signs indicate an increasing number of syncitia in each well; the (+), +, ++, ++T signs indicate an increasing number of syncitia in each well; the (+), +, ++, ++T signs indicate an increasing number of syncitia in each well; the (+), +, ++, ++T signs indicate an increasing number of syncitia in each well; The indication “T” indicates the death of the cells; conditions: 0.01 μM; for Number of Syncitia in the Culture (wells), J3: day 3; for Number of Syncitia in the Culture (wells), J4: day 4; for Number of Syncitia in the Culture (wells), J5: day 5; for Number of Syncitia in the Culture (wells), J6: day 6; for Number of Syncitia in the Culture (wells), J7: day 7
Description: either by the observation, as a function of the quantity of sulphated polysaccharide used and of the time of said use, which can be made before, during or after infection, or even continuously, and of the reduction of the number of syncitia appearing in a culture of MT4 cells following infection by a HIV retrovirus (example 2A),
(§1) Then infection of the cells was carried out by adding to each well, with the exception of those wells being used as control cells, 50 μL of previously titrated virus dilution.
(§2) After an additional hour of incubation, the plate was centrifuged and the supernatant containing the residual virus was discarded.
(§3) After 3 days of culture, the cells were diluted to half and the syncitia were observed using the inverse microscope from day 3 to day 7 after having been placed in suspension.
(§4) In the third case, the MT4 cell culture was preincubated for one hour at 37° C., then the cells were infected, the whole was subjected to incubation for one hour at 37° C., then to centrifugation with the elimination of the supernatant containing the virus that had not penetrated into the cells.
The washings and rinsings were done using RPMI without foetal calf serum.
(§5) In each of the four types of experiments that have just been described, and as previously indicated, the cells were diluted to half after three days of culture and then the syncitia were observed using the inverted microscope from day 3 to day 7.
(§6) In the experiments described in greater detail hereinafter, the absence of syncitia is indicated by a minus (−) sign and the (+), +, ++, ++T signs indicate an increasing number of syncitia in each well.
(§7) The indication “T” indicates the death of the cells.
The BRU virus (clade B) was used for infecting the MT4 cells at a viral dilution of 10^5, which corresponds to the quantity of viral particles capable of infecting 80% of the MT4 cultures (Tissue Culture Infections Dose 80%, TCID80%).

[2] = system: NDK virus; experiment: Number of syncitia in MT4 cell culture infected by NDK virus; parameters: key to Number of Syncitia in the Culture (wells), J3 / Number of Syncitia in the Culture (wells), J4 / Number of Syncitia in the Culture (wells), J5 / Number of Syncitia in the Culture (wells), J6: the absence of syncitia is indicated by a minus (−) sign; the (+), +, ++, ++T signs indicate an increasing number of syncitia in each well; the (+), +, ++, ++T signs indicate an increasing number of syncitia in each well; the (+), +, ++, ++T signs indicate an increasing number of syncitia in each well; the (+), +, ++, ++T signs indicate an increasing number of syncitia in each well; The indication “T” indicates the death of the cells; conditions: for Number of Syncitia in the Culture (wells), J3: day 3; for Number of Syncitia in the Culture (wells), J4: day 4; for Number of Syncitia in the Culture (wells), J5: day 5; for Number of Syncitia in the Culture (wells), J6: day 6
Description: as §1, §2, §3, §4, §5, §6, §7

[3] = system: NDK (clade D) virus; experiment: RT activity and cell number as a function of the moment of incorporation, NDK virus; conditions: 0.1 μM; for Number of cells, J7: day 7; for Number of cells, J3 / Quantity of RT measured, J3: day 3
Description: The procedure was the same as that previously indicated with regard to the experiments carried out on MT4 cells; e.g., as in Example 2A.
The results of the measurements done on days 3 and 7 are summarized in Table D; RT activity is expressed in dpm/mL and cells are expressed in 10^6 cells/mL.

[4] = Continuous, before, during and after infection
[5] = Continuous, before, during and after infection, 0.4 μm
[6] = Continously, before, during and after

## 3′-azidothymidine [AZT]
[1]; After infection
  Number of Syncitia in the Culture (wells), J3: −
  Number of Syncitia in the Culture (wells), J4: −
  Number of Syncitia in the Culture (wells), J5: −
  Number of Syncitia in the Culture (wells), J6: −
  Number of Syncitia in the Culture (wells), J7: −
[1]; Before infection
  Number of Syncitia in the Culture (wells), J3: −
  Number of Syncitia in the Culture (wells), J4: (+)
  Number of Syncitia in the Culture (wells), J5: ++ and +
  Number of Syncitia in the Culture (wells), J6: ++T and ++
  Number of Syncitia in the Culture (wells), J7: ++T
[1]; [4]
  Number of Syncitia in the Culture (wells), J3: −
  Number of Syncitia in the Culture (wells), J4: −
  Number of Syncitia in the Culture (wells), J5: −
  Number of Syncitia in the Culture (wells), J6: −
  Number of Syncitia in the Culture (wells), J7: −
[1]; During infection
  Number of Syncitia in the Culture (wells), J3: −
  Number of Syncitia in the Culture (wells), J4: (+)
  Number of Syncitia in the Culture (wells), J5: +
  Number of Syncitia in the Culture (wells), J6: ++
  Number of Syncitia in the Culture (wells), J7: ++T
[2]; After infection, 0.4 μm
  Number of Syncitia in the Culture (wells), J3: −
  Number of Syncitia in the Culture (wells), J4: −
  Number of Syncitia in the Culture (wells), J5: −
[2]; After infection
  Number of Syncitia in the Culture (wells), J6: −
[2]; Before infection, 0.4 μg/mL
  Number of Syncitia in the Culture (wells), J3: −
  Number of Syncitia in the Culture (wells), J4: + and −
  Number of Syncitia in the Culture (wells), J5: ++ and −
  Number of Syncitia in the Culture (wells), J6: T and (+)
[2]; [5]
  Number of Syncitia in the Culture (wells), J3: −
  Number of Syncitia in the Culture (wells), J4: −
  Number of Syncitia in the Culture (wells), J5: −
[2]; [4]
  Number of Syncitia in the Culture (wells), J6: −
[2]; During infection, 0.4 μm
  Number of Syncitia in the Culture (wells), J3: −
  Number of Syncitia in the Culture (wells), J4: −
  Number of Syncitia in the Culture (wells), J5: −
[2]; During infection
  Number of Syncitia in the Culture (wells), J6: −
[3]
  Number of cells, J7: 3.2 10^6 Cells/mL and 1.6 10^6 Cells/mL
[3]; After infection
  Number of cells, J3: 1.2 10^6 Cells/mL and 0.8 10^6 Cells/mL
  Quantity of RT measured, J3: 1249 dpm/mL and 956 dpm/mL
  Number of cells, J7: 1.8 10^6 Cells/mL and 3.2 10^6 Cells/mL
[3]; Before infection
  Number of cells, J3: 1.4 10^6 Cells/mL and 0.8 10^6 Cells/mL
  Number of cells, J7: 2 10^6 Cells/mL and 3.8 10^6 Cells/mL
[3]; [6]
  Number of cells, J3: 1.7 10^6 Cells/mL and 1.3 10^6 Cells/mL
  Quantity of RT measured, J3: 399 dpm/mL and 750 dpm/mL
  Number of cells, J7: 3.6 10^6 Cells/mL and 3.2 10^6 Cells/mL
[3]; During dining room
  Number of cells, J3: 1.9 10^6 Cells/mL and 1.6 10^6 Cells/mL
  Quantity of RT measured, J3: 1529 dpm/mL and 956 dpm/mL
